Source: patent US20120197004A1, “NOVEL ANTI-MICROBIAL PEPTIDOMIMETIC COMPOUNDS AND METHODS TO CALCULATE ANTI-MICROBIAL ACTIVITY” (priority 2006, published 2012)
In brackets after ≈: the same amount, converted by molar mass. Where two headings read alike, the source gives them in different places. Where a SMILES comes first, the peptide text is derived from it. [ ]: non-standard residue; d: D form. The star is where a group is joined. Phe(4-NO2) = N[C@@H](Cc1ccc([N+](=O)[O-])cc1)C(=O)O; Oic = O=C(O)[C@@H]1C[C@@H]2CCCC[C@@H]2N1; Phe(4-Cl) = N[C@@H](Cc1ccc(Cl)cc1)C(=O)O; Phe(4-F) = N[C@@H](Cc1ccc(F)cc1)C(=O)O; Tic = O=C(O)[C@@H]1Cc2ccccc2CN1; Orn = NCCC[C@H](N)C(=O)O; Dap = NC[C@H](N)C(=O)O; NH(CH2)3NH2 = NCCCN*; βAla = NCCC(=O)O

Key:
[1] = system: Mycobacterium ranae (ATCC 110)
[2] = system: Staphylococcus aureus Methicillin/Gentamicin/Tetracycline Resistant (ATCC 33592); settings: for Minimum Inhibitory Concentration Staphylococcus aureus ME/GM/TC resistant: in vitro MIC, tested at 100, 30, 10, 3, 1, 0.3 and 0.1 μM in 1% DMSO; for p(MIC) Staphylococcus aureus ME/GM/TC resistant: -log(MIC); for MIC Staphylococcus aureus ME/GM/TC resistant: Minimal Inhibitory Concentration, tested at 100-0.1 in 1% DMSO; for Actual Bioactivity: p(MIC) used in Staphylococcus aureus QSAR model
[3] = system: Salmonella typhimurium (ATCC 13311); settings: for p(MIC) Salmonella typhimurium: -log(MIC); for MIC Salmonella typhimurium: ATCC 13311
[4] = system: Bacillus subtillis (ATCC 43223); settings: for p(MIC) Bacillus Subtillis: -log(MIC); for MIC Bacillus Subtillis: ATCC 43223

With `CC(=O)NCC(=O)N[C@@H](Cc1ccccc1)C(=O)N1Cc2ccccc2C[C@H]1C(=O)N1[C@H](C(=O)NCC(=O)N[C@@H](CN)C(=O)N2Cc3ccccc3C[C@H]2C(=O)N2[C@H](C(=O)NCC(=O)N[C@@H](Cc3ccccc3)C(=O)N3Cc4ccccc4C[C@H]3C(=O)N3[C@H](C(=O)NCC(=O)N[C@@H](CN)C(=O)N4Cc5ccccc5C[C@H]4C(=O)N[C@@H](CN)C(=O)N[C@@H](CN)C(=O)N[C@@H](CN)C(=O)N[C@@H](CN)C(N)=O)C[C@@H]4CCCC[C@@H]43)C[C@@H]3CCCC[C@@H]32)C[C@@H]2CCCC[C@@H]21` [FKAB-1Gs, Ac-GF-Tic-Oic-G-Dpr-Tic-Oic-GF-Tic-Oic-G-Dpr-Tic-Dpr-DprDpr-Dpr-CONH2] (Ac-GF[Tic][Oic]G[Dap][Tic][Oic]GF[Tic][Oic]G[Dap][Tic][Dap][Dap][Dap][Dap]-NH2) the “Minimum Inhibitory Concentration Mycobacterium ranae” value ([1]; ATCC 110) was 100 µM and the “Minimum Inhibitory Concentration Staphylococcus aureus ME/GM/TC resistant” value [2] was 10 μm μM.

For `CC(=O)NCC(=O)N[C@@H](Cc1ccccc1)C(=O)N1Cc2ccccc2C[C@H]1C(=O)N1[C@H](C(=O)NCC(=O)N[C@@H](CCCCN)C(=O)N2Cc3ccccc3C[C@H]2C(=O)N2[C@H](C(=O)NCC(=O)N[C@@H](Cc3ccccc3)C(=O)N3Cc4ccccc4C[C@H]3C(=O)N3[C@H](C(=O)NCC(=O)N[C@@H](CCCCN)C(=O)N4Cc5ccccc5C[C@H]4C(=O)N[C@@H](CCCCN)C(=O)N[C@@H](CCCCN)C(=O)N[C@@H](CCCCN)C(=O)N[C@@H](CCCCN)C(=O)NCCCN)C[C@@H]4CCCC[C@@H]43)C[C@@H]3CCCC[C@@H]32)C[C@@H]2CCCC[C@@H]21` [FKAB-1L, Ac-GF-Tic-Oic-GK-Tic-Oic-GF-Tic-Oic-GK-Tic-KKKK-CONH—CH2—CH2—CH2—NH2] (Ac-GF[Tic][Oic]GK[Tic][Oic]GF[Tic][Oic]GK[Tic]KKKK-{NH(CH2)3NH2}), the “Actual Bioactivity” value [1] was 5.000, the “MIC Mycobacterium ranae” value ([1]; ATCC 110) was 10.00 µM (≈ 25 µg/mL) and the “Minimum Inhibitory Concentration Mycobacterium ranae” value ([1]; ATCC 110) was 10 µM. The “p(MIC) Salmonella typhimurium” value [3] was 4.52, the “MIC Salmonella typhimurium” value [3] was 30 µM (≈ 74.9 µg/mL) and the “p(MIC) Bacillus Subtillis” value [4] was 5.52. The “MIC Bacillus Subtillis” value [4] was 3.00 µM (≈ 7.49 µg/mL), the “p(MIC) Staphylococcus aureus ME/GM/TC resistant” value [2] was 5.00 and the “MIC Staphylococcus aureus ME/GM/TC resistant” value [2] was 10.00 µM (≈ 25 µg/mL). The “Minimum Inhibitory Concentration Staphylococcus aureus ME/GM/TC resistant” value [2] was 10 µM and the “Actual Bioactivity” value [2] was 5.000.

In the case of `CC(=O)NCC(=O)N[C@@H](Cc1ccccc1)C(=O)N1Cc2ccccc2C[C@H]1C(=O)N1[C@H](C(=O)NCC(=O)N[C@@H](CCCCN)C(=O)N2Cc3ccccc3C[C@H]2C(=O)N2[C@H](C(=O)NCC(=O)N[C@@H](Cc3ccccc3)C(=O)N3Cc4ccccc4C[C@H]3C(=O)N3[C@H](C(=O)NCC(=O)N[C@@H](CCCCN)C(=O)N4Cc5ccccc5C[C@H]4C(=O)N[C@@H](CCCN)C(=O)N[C@@H](CCCN)C(=O)N[C@@H](CCCN)C(=O)N[C@@H](CCCN)C(N)=O)C[C@@H]4CCCC[C@@H]43)C[C@@H]3CCCC[C@@H]32)C[C@@H]2CCCC[C@@H]21` [FKAB-1Gj, Ac-GF-Tic-Oic-GK-Tic-Oic-GF-Tic-Oic-GK-Tic-Orn-Orn-Orn-Orn-CONH2] (Ac-GF[Tic][Oic]GK[Tic][Oic]GF[Tic][Oic]GK[Tic][Orn][Orn][Orn][Orn]-NH2), the “Actual Bioactivity” value [1] is reported as 5.000, the “Minimum Inhibitory Concentration Mycobacterium ranae” value [1] is reported as 10 µM and the “MIC Mycobacterium ranae” value ([1]; ATCC 110) is reported as 10.00 µM (≈ 23.8 µg/mL). The “p(MIC) Salmonella typhimurium” value [3] was 5.00, the “MIC Salmonella typhimurium” value [3] was 10 µM (≈ 23.8 µg/mL) and the “p(MIC) Bacillus Subtillis” value [4] was 6.00. For the same compound, the “MIC Bacillus Subtillis” value [4] was 1.00 µM (≈ 2.38 µg/mL), the “p(MIC) Staphylococcus aureus ME/GM/TC resistant” value [2] was 5.00 and the “MIC Staphylococcus aureus ME/GM/TC resistant” value [2] was 10.00 µM (≈ 23.8 µg/mL). The “Minimum Inhibitory Concentration Staphylococcus aureus ME/GM/TC resistant” value [2] was 10 µM and the “Actual Bioactivity” value [2] was 5.000.

For `CC(=O)NCC(=O)N[C@@H](Cc1ccc([N+](=O)[O-])cc1)C(=O)N1Cc2ccccc2C[C@H]1C(=O)N1[C@H](C(=O)NCC(=O)N[C@@H](CCCCN)C(=O)N2Cc3ccccc3C[C@H]2C(=O)N2[C@H](C(=O)NCC(=O)N[C@@H](Cc3ccc([N+](=O)[O-])cc3)C(=O)N3Cc4ccccc4C[C@H]3C(=O)N3[C@H](C(=O)NCC(=O)N[C@@H](CCCCN)C(=O)N4Cc5ccccc5C[C@H]4C(=O)N[C@@H](CCCCN)C(=O)N[C@@H](CCCCN)C(=O)N[C@@H](CCCCN)C(=O)N[C@@H](CCCCN)C(N)=O)C[C@@H]4CCCC[C@@H]43)C[C@@H]3CCCC[C@@H]32)C[C@@H]2CCCC[C@@H]21` [FKAB-1Go2, Ac-G-Nph-Tic-Oic-GK-Tic-Oic-G-Nph-Tic-Oic-GK-Tic-KKKK-CONH2] (Ac-G[Phe(4-NO2)][Tic][Oic]GK[Tic][Oic]G[Phe(4-NO2)][Tic][Oic]GK[Tic]KKKK-NH2), the “Minimum Inhibitory Concentration Mycobacterium ranae” value ([1]; ATCC 110) was 10 µM.

In the case of `CC(=O)NCC(=O)N[C@@H](Cc1ccc(Cl)cc1)C(=O)N1Cc2ccccc2C[C@H]1C(=O)N1[C@H](C(=O)NCC(=O)N[C@@H](CCCCN)C(=O)N2Cc3ccccc3C[C@H]2C(=O)N2[C@H](C(=O)NCC(=O)N[C@@H](Cc3ccc(Cl)cc3)C(=O)N3Cc4ccccc4C[C@H]3C(=O)N3[C@H](C(=O)NCC(=O)N[C@@H](CCCCN)C(=O)N4Cc5ccccc5C[C@H]4C(=O)N[C@@H](CCCCN)C(=O)N[C@@H](CCCCN)C(=O)N[C@@H](CCCCN)C(=O)N[C@@H](CCCCN)C(N)=O)C[C@@H]4CCCC[C@@H]43)C[C@@H]3CCCC[C@@H]32)C[C@@H]2CCCC[C@@H]21` [FKAB-1Go1, Ac-G-Cph-Tic-Oic-GK-Tic-Oic-G-Cph-Tic-Oic-GK-Tic-KKKK-CONH2] (Ac-G[Phe(4-Cl)][Tic][Oic]GK[Tic][Oic]G[Phe(4-Cl)][Tic][Oic]GK[Tic]KKKK-NH2), the “Minimum Inhibitory Concentration Mycobacterium ranae” value ([1]; ATCC 110) is reported as 10 µM and the “Minimum Inhibitory Concentration Salmonella typhimurium” value ([3]; in vitro MIC, tested at 100, 30, 10, 3, 1, 0.3 and 0.1 μM in 1% DMSO) is reported as “not active”.

For `CC(=O)N[C@@H](CCCCN)C(=O)N[C@@H](CCCCN)C(=O)N[C@@H](CCCCN)C(=O)N[C@@H](CCCCN)C(=O)NCC(=O)N[C@@H](Cc1ccccc1)C(=O)N1Cc2ccccc2C[C@H]1C(=O)N1[C@H](C(=O)NCC(=O)N[C@@H](CCCCN)C(=O)N2Cc3ccccc3C[C@H]2C(=O)N2[C@H](C(=O)NCC(=O)N[C@@H](Cc3ccccc3)C(=O)N3Cc4ccccc4C[C@H]3C(=O)N3[C@H](C(=O)NCC(=O)N[C@@H](CCCCN)C(=O)N4Cc5ccccc5C[C@H]4C(N)=O)C[C@@H]4CCCC[C@@H]43)C[C@@H]3CCCC[C@@H]32)C[C@@H]2CCCC[C@@H]21` [FBAB-1Gq, Ac-KKKK-GF-Tic-Oic-GK-Tic-Oic-GF-Tic-Oic-GK-Tic-CONH2] (Ac-KKKKGF[Tic][Oic]GK[Tic][Oic]GF[Tic][Oic]GK[Tic]-NH2), the “Minimum Inhibitory Concentration Mycobacterium ranae” value ([1]; ATCC 110) was 3 µM.

`CC(=O)NCCC(=O)N[C@@H](Cc1ccc(F)cc1)C(=O)N1Cc2ccccc2C[C@H]1C(=O)N1[C@H](C(=O)NCCC(=O)N[C@@H](CN)C(=O)N2Cc3ccccc3C[C@H]2C(=O)N2[C@H](C(=O)NCCC(=O)N[C@@H](Cc3ccc(F)cc3)C(=O)N3Cc4ccccc4C[C@H]3C(=O)N3[C@H](C(=O)NCCC(=O)N[C@@H](CN)C(=O)N4Cc5ccccc5C[C@H]4C(=O)N[C@@H](CN)C(=O)N[C@@H](CN)C(=O)N[C@@H](CN)C(=O)N[C@@H](CN)C(N)=O)C[C@@H]4CCCC[C@@H]43)C[C@@H]3CCCC[C@@H]32)C[C@@H]2CCCC[C@@H]21` [FBAB-1Gw, Ac-βAla-Fpa-Tic-Oic-βAla-Dpr-Tic-Oic-βAla-Fpa-Tic-Oic-βAla-Dpr-Tic-Dpr-Dpr-Dpr-Dpr-CONH2] (Ac-[βAla][Phe(4-F)][Tic][Oic][βAla][Dap][Tic][Oic][βAla][Phe(4-F)][Tic][Oic][βAla][Dap][Tic][Dap][Dap][Dap][Dap]-NH2) was tested, and the “Minimum Inhibitory Concentration Mycobacterium ranae” value ([1]; ATCC 110) was 100 µM, the “selectivity for Salmonella typhimurium over Mycobacterium ranae” value ([3]; in vitro) was 33 fold and the “selectivity for Salmonella typhimurium over Staphylococcus aureus ME/GM/TC resistant” value ([3]; in vitro) was 10 fold.

`CC(=O)NCC(=O)N[C@@H](Cc1ccccc1)C(=O)N1Cc2ccccc2C[C@H]1C(=O)N1[C@H](C(=O)NCC(=O)N[C@H](CCCCN)C(=O)N2Cc3ccccc3C[C@H]2C(=O)N2[C@H](C(=O)NCC(=O)N[C@@H](Cc3ccccc3)C(=O)N3Cc4ccccc4C[C@H]3C(=O)N3[C@H](C(=O)NCC(=O)N[C@H](CCCCN)C(=O)N4Cc5ccccc5C[C@H]4C(=O)N[C@@H](CCCCN)C(=O)N[C@@H](CCCCN)C(=O)N[C@@H](CCCCN)C(=O)N[C@@H](CCCCN)C(N)=O)C[C@@H]4CCCC[C@@H]43)C[C@@H]3CCCC[C@@H]32)C[C@@H]2CCCC[C@@H]21` [FKAB-1G3, Ac-GF-Tic-Oic-G-dK-Tic-Oic-GF-Tic-Oic-G-dK-Tic-KKKK-CONH2] (Ac-GF[Tic][Oic]G[dK][Tic][Oic]GF[Tic][Oic]G[dK][Tic]KKKK-NH2) was tested, and the “Minimum Inhibitory Concentration Mycobacterium ranae” value ([1]; ATCC 110) was 10 µM.

`CC(=O)NCCC(=O)N[C@@H](Cc1ccc(F)cc1)C(=O)N1Cc2ccccc2C[C@H]1C(=O)N1[C@H](C(=O)NCCC(=O)N[C@@H](CCCCN)C(=O)N2Cc3ccccc3C[C@H]2C(=O)N2[C@H](C(=O)NCCC(=O)N[C@@H](Cc3ccc(F)cc3)C(=O)N3Cc4ccccc4C[C@H]3C(=O)N3[C@H](C(=O)NCCC(=O)N[C@@H](CCCCN)C(=O)N4Cc5ccccc5C[C@H]4C(=O)N[C@@H](CN)C(=O)N[C@@H](CN)C(=O)N[C@@H](CN)C(=O)N[C@@H](CN)C(N)=O)C[C@@H]4CCCC[C@@H]43)C[C@@H]3CCCC[C@@H]32)C[C@@H]2CCCC[C@@H]21` [FKAB-1Gv, Ac-βAla-Fpa-Tic-Oic-βAla-K-Tic-Oic-βAla-Fpa-Tic-Oic-βAla-K-Tic-Dpr-Dpr-Dpr-Dpr-CONH2] (Ac-[βAla][Phe(4-F)][Tic][Oic][βAla]K[Tic][Oic][βAla][Phe(4-F)][Tic][Oic][βAla]K[Tic][Dap][Dap][Dap][Dap]-NH2) was tested, and the “Minimum Inhibitory Concentration Mycobacterium ranae” value ([1]; ATCC 110) was 30 µM.
